Like-named read-outs stand apart in the source and are kept apart here.
Assays:
[1] = IgG assay (immunogenicity) in mice; settings: wild-type mice, 5 weeks
Procedure: An IgG assay was performed to assess whether an IgG immune response was triggered by 5 week exposure of achondroplastic FGFR3^ach mice to CNP22, CNP37 or PEO24-GANRR-CNP22(K4R) (“CNP27-PEO24”) (SEQ ID NO: 36). IgG is the most predominant immunoglobulin in mouse and human serum and is produced as part of the secondary immune response to an antigen. The IgG response to administration of the CNP peptides was determined as follows. 96-well plates were coated with 100 ng/mL CNP22, CNP37 or PEO24-GANRR-CNP22(K4R) (SEQ ID NO: 36) in BupH PBS buffer (Pierce/Thermo, Cat. No. 28372, Rockford, Ill.). After overnight incubation, plates were blocked with Casein-PBS blocking buffer (Pierce/Thermo, Cat. No. 37528) for two hours at room temperature with shaking at 300 rpm. After washing with wash buffer (1×PBS with 0.05% Tween), diluted serum samples from a terminal bleed (diluted 1:25) were added to the plate. Positive and negative controls were also loaded onto the plate. Positive control was 1:25 diluted serum (pooled from 6 individual FVB mice) with anti-CNP22 antibody added (Bachem rabbit anti-CNP22 IgG, Cat. No. T-4222) at 1:1000 dilution. Negative control was the diluted pooled serum. After two hours of incubation, the plates were washed and secondary antibody diluted in blocking buffer was added to the wells. For the mouse serum samples, anti-mouse IgG Fcγ (peroxidase-conjugated affinipure goat anti-mouse IgG, Fcγ fragment, Cat. No. 115-035-071, Jackson Immunoresearch, West Grove, Pa.) was added at a 1:10,000 dilution. For the positive and negative controls, anti-rabbit IgG-HRP (Santa Cruz Biotechnology, Cat. No. SC-2004, Santa Cruz, Calif.) was added to blocking buffer. After two hours of incubation at room temperature with shaking at 300 rpm, plates were washed with wash buffer. 100 uL of TMB (One-step TMB, Pierce/Thermo, Cat. No. 34022) was added to all wells. Plates were incubated at room temperature for 15 minutes with shaking at 300 rpm. Colorimetric reactions were stopped by the addition of 100 uL of 2 N H2SO4. Plates were read at 450 nm (Spectramax, Molecular Devices, Sunnyvale, Calif.) and data was analyzed using SoftMax Pro software (Molecular Devices).
The immunogenic response of wild-type mice administered G-CNP37, PEO12-GANRR-CNP22(K4R) (SEQ ID NO: 36) or Pro-Gly-CNP37, as measured by an increase in serum IgG level, was also assessed by examining terminal bleed serum samples as described above.

[2] = molecular target: neutral endopeptidase (NEP) (Homo sapiens, UniProt P08473); experiment: in vitro NEP cleavage assay (disappearance of non-cleaved CNP variant); settings: human, pH 7
neutral endopeptidase (NEP), sequence (P08473 whole entry): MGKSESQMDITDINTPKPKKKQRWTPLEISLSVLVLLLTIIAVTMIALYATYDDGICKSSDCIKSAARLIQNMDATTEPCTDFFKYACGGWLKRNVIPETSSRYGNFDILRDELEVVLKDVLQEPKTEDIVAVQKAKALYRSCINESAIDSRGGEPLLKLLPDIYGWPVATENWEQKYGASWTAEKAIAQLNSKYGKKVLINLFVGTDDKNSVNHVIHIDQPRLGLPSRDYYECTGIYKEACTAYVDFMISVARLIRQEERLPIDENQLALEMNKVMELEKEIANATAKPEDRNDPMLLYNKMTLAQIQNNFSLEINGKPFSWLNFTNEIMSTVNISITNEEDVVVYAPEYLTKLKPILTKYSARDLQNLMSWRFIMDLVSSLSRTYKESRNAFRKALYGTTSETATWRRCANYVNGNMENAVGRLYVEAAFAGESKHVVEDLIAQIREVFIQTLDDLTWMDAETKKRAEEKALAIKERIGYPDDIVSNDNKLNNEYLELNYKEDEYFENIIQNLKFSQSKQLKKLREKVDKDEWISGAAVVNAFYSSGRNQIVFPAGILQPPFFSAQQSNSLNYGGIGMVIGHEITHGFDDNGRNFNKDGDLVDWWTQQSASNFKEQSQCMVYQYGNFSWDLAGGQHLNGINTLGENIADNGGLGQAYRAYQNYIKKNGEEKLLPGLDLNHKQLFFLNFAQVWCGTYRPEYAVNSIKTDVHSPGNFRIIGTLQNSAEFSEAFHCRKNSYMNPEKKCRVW
Method in brief: (§1)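 Recombinant human NEP (1 ug/mL final) incubated with 100 uM CNP variant in 0.1 M Tris, pH 7, at 37° C for various times, then quenched with EDTA (10 mM final) and heat. Samples reduced and analysed by HPLC and mass spectrometry. Half-life derived from loss of intact variant over time.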

Recombinant human NEP = Recombinant human NEP (Homo sapiens, UniProt P08473); experiment: as above
Recombinant human NEP, sequence (P08473 whole entry): as above
Method in brief: as §1

wild-type FVB mice = settings: mouse, in vivo
From the text: Group 1 included vehicle-treated mice injected s.c. daily for 9 weeks followed by 1 week of no treatment. Group 2 included mice treated with Pro-Gly-CNP37 (20 nmol/kg) once daily for 1 week, followed by three doses per week for 8 weeks, followed by 1 week of no treatment. Group 3 contained mice treated with Pro-Gly-CNP37 (20 nmol/kg) once daily in alternate weeks (weeks 1, 3, 5, 7 and 9), with 1 week of no treatment following each week of treatment. Group 4 contained mice treated with Pro-Gly-CNP37 (5 nmol/kg) once daily for 9 weeks followed by 1 week of no treatment. Finally, Group 5 included mice treated with Pro-Gly-CNP37 (5 nmol/kg) once daily for 5 weeks without any week of no treatment. Terminal bleed serum was collected from the mice, and cleaved collagen type II, total alkaline phosphatase and total antibody levels were measured therefrom. Cleaved collagen type II levels were measured as described above. Total alkaline phosphatase levels, predominantly from the liver and bones, were measured with the assistance of a veterinary diagnostic laboratory testing facility (Antech). […] Among the advantages of the ECLA platform, any isotype of antibody (IgG, IgM, etc.) can be detected, and the ECLA assay is species-independent. […] At the end of the 1 hour incubation, the MSD plate was washed and 150 uL of 2× read buffer (MSD Cat. No. R92TC-2) was added to the plate. […]

wild type FVB mice = experiment: dose responses of CNP variants in wild type FVB mice; settings: mouse, in vivo
Procedure: Tail length and body weight were measured over the course of treatment. Animals were sacrificed at the end of the experiment and bone length assessed.

wild type mice = settings: mouse, in vivo

Structure (SMILES)	IgG immune response [1]	half-life at 100 uM [2] [h]	resistance to NEP cleavage (in words) (Recombinant human NEP; in vitro NEP assay, assay period 160 minutes)	antibody response in the total antibody assay (wild-type FVB mice)	organ weight compared with vehicle treated animals (wild type FVB mice)	anti-CNP antibodies (IgG antibody response) (wild type mice)	resistance to NEP cleavage (in words) (Recombinant human NEP)
CC[C@H](C)[C@@H]1NC(=O)[C@H](CCCNC(=N)N)NC(=O)[C@H](CC(=O)O)NC(=O)[C@H](CC(C)C)NC(=O)[C@H](CCCCN)NC(=O)[C@H](CC(C)C)NC(=O)CNC(=O)[C@H](Cc2ccccc2)NC(=O)[C@@H](NC(=O)CNC(=O)[C@H](CCCCN)NC(=O)[C@H](CO)NC(=O)[C@H](CC(C)C)NC(=O)CNC(=O)[C@H](CCCCN)NC(=O)[C@H](CCCCN)NC(=O)[C@H](CC(N)=O)NC(=O)[C@H](C)NC(=O)CNC(=O)[C@H](CCCCN)NC(=O)[C@H](Cc2ccc(O)cc2)NC(=O)[C@H](CCCCN)NC(=O)[C@H](CCCNC(=N)N)NC(=O)[C@H](C)NC(=O)[C@H](CC(N)=O)NC(=O)[C@@H]2CCCN2C(=O)[C@H](Cc2c[nH]cn2)NC(=O)[C@H](CCC(=O)O)NC(=O)[C@H](CCC(N)=O)NC(=O)CNC(=O)[C@@H]2CCCN2)CSSC[C@@H](C(=O)O)NC(=O)CNC(=O)[C@H](CC(C)C)NC(=O)CNC(=O)[C@H](CO)NC(=O)[C@H](CCSC)NC(=O)[C@H](CO)NC(=O)CNC1=O [Pro-Gly-CNP37]	None of the wild-type mice	> 2.67	most resistant to NEP degradation	did not show a positive antibody response	no significant changes	–	–
CC[C@H](C)[C@@H]1NC(=O)[C@H](CCCNC(=N)N)NC(=O)[C@H](CC(=O)O)NC(=O)[C@H](CC(C)C)NC(=O)[C@H](CCCCN)NC(=O)[C@H](CC(C)C)NC(=O)CNC(=O)[C@H](Cc2ccccc2)NC(=O)[C@@H](NC(=O)CNC(=O)[C@H](CCCCN)NC(=O)[C@H](CO)NC(=O)[C@H](CC(C)C)NC(=O)CNC(=O)[C@H](CCCCN)NC(=O)[C@H](CCCCN)NC(=O)[C@H](CC(N)=O)NC(=O)[C@H](C)NC(=O)CNC(=O)[C@H](CCCCN)NC(=O)[C@H](Cc2ccccc2)NC(=O)[C@H](CCCNC(=N)N)NC(=O)[C@H](Cc2c[nH]cn2)NC(=O)[C@H](C)NC(=O)[C@@H](NC(=O)[C@H](CCC(=O)O)NC(=O)[C@H](CO)NC(=O)[C@H](CCCCN)NC(=O)[C@H](Cc2c[nH]cn2)NC(=O)CN)C(C)C)CSSC[C@@H](C(=O)O)NC(=O)CNC(=O)[C@H](CC(C)C)NC(=O)CNC(=O)[C@H](CO)NC(=O)[C@H](CCSC)NC(=O)[C@H](CO)NC(=O)CNC1=O [HSA-CNP27]	–	> 2.67	–	–	–	elicited and IgG antibody response	most resistant to NEP degradation

— USRE48267E1, “Variants of C-type natriuretic peptide” (priority 2009, dated 2020)
